Tests used:
E. coli = assay: Kit plate disk-quarter diffusion AST, mixed culture; format: cell-based; conditions: mixed culture with Staph. aureus, Cephalothin chamber 70', region confirmed by gram stain, FIG. 37
From the text: (§1) FIGS. 37A to 37C illustrates the growth of two microorganisms, Staph. aureus and E. coli, on the same preferred embodiment kit plate. FIGS. 37B and 37C are two different views of an enlargement of the AST test chambers (67′-70′ and 72′-75′). FIG. 37B viewed with back lighting. FIG. 37C viewed with front lighting. Two AST test chambers are featured in these figures: Mueller Hinton agar plus antimicrobial Cephalothin chamber 70′ and Mueller Hinton agar plus antimicrobial Enrofloxicin chamber 73′. Two margins are observable in each chamber: E coli & cephalothin margin 180 and Staph. aureus & cephalothin margin 181 for Cephalothin chamber 70′; and Staph. aureus & Enrofloxicin margin 182 and E. coli & Enrofloxicin margin 183 for Enrofloxicin chamber 73′. The region 176A is between the E. coli margin 180 and Staph. aureus margin 181 in Cephalothin chamber 70′. The region 178A is between the Staph. aureus margin 182 and the E. coli margin 183 in Enrofloxicin chamber 73′. Illustrated in FIG. 38 are two gram stains 176B and 178B of a sample from regions 176A and 178A respectively.
(§2) […] of this dilution is added per chamber. FIG. 17 illustrates the first chamber of the top two rows inoculated using dilution 140. Eighty micro liters of dilution 140 is added per chamber to the ten upper test chambers. […]

Staph. aureus = assay: as above; format: cell-based; conditions: mixed culture with E. coli, Enrofloxicin chamber 73', region confirmed by gram stain, FIG. 37
From the text: as §1, §2

Row | Structure (SMILES) | AST result in growth region 176A, between margins 180 and 181 (E. coli) | AST result in growth region 178A, between margins 182 and 183 (Staph. aureus)
1 | CC(=O)OCC1=C(C(=O)O)N2C(=O)[C@@H](NC(=O)Cc3cccs3)[C@H]2SC1 [Cephalothin] | resistance | 
2 | CCN1CCN(c2cc3c(cc2F)c(=O)c(C(=O)O)cn3C2CC2)CC1 [Enrofloxicin] |  | resistance

From patent US20030124643A1, “Method and kit forrapid concurrent identification and antimicrobial susceptibility testing of microorganisms from broth culture” (priority 2001, published 2003)
